Measured values taken from patent US10898419B2, “Compounds for promoting hair growth and/or inhibiting or delaying hair loss in humans, and compositions for such uses” (GIULIANI S.P.A., priority 2016, dated 2021).

Assays:
[1] = test system: microdissected human scalp HFs; assay: Hair cycle score / staging (catagen induction) in HF organ culture; type: cell-based; details: 500 μM (Phenirat 1:1), 6 days of culture, compared to vehicle
Experimental: (§1) HFs were treated with either the vehicle, sandal pentanol, Phenirat or a mixture of sandal pentanol and Phenirat. To analyse modifications of the hair cycle, Ki67/TUNEL were performed and used to evaluate hair cycle score and hair matrix keratinocytes proliferation and apoptosis.
Human scalp samples were obtained after face-lifting procedure and used at the same day for microdissecting human anagen VI scalp HFs. Microdissected human scalp HFs were cultured at 37° C. with 5% CO2 in a minimal media of William's E media (Gibco, Life technologies) supplemented with 2 mM of L-glutamine (Gibco), 10 ng/ml hydrocortisone (Sigma-Aldrich), 10 μg/ml insulin (Sigma-Aldrich) and 1% penicillin/streptomycin mix (Gibco) (WEM) as previously described (Philpott, 1990; Kloepper, 2010; Langan et al, 2015). […]
(§2) Phenirat was added 30 min before sandal pentanol. Hair shaft elongation was measured daily using an inverted binocular microscope (Philpott et al., 1990) and culture medium was replaced every second day. […]
To investigate the specificity of the effect on hair growth of OR2AT4 stimulation by sandal pentanol, microdissected HFs were cultured with sandal pentanol and/or Phenirat, and hair cycle performed staging analysis as previously described (Kloepper, 2010; Langan et al, 2015). Hair cycle score was measured both in treated and vehicle HFs after 6 days of culture. […]

[2] = test system: hair matrix keratinocytes; assay: Ki67/TUNEL staining of hair matrix keratinocytes in HF organ culture; type: cell-based, human; details: 500 μM (Phenirat 1:1), 6 day-culture, compared to vehicle
Experimental: as §1
OCT embedded samples were sectioned (6 μm thickness) with a cryostat. Sections were fixed in 4% paraformaldehyde, pre-incubated with 10% of goat serum (for OR2AT4) or 5% goat serum+0.3% Tritton X-100 (for cleaved-caspase 3) and incubated with the corresponding primary antibody at 4° C. overnight ( 1/100 for OR2AT4 and 1/400 for cleaved-caspase 3). Secondary antibody incubation was performed at RT for 45 min. Counterstaining with DAPI (1 μg/mL) was performed to visualize nuclei. For TGFb2, samples were fixed in acetone and the endogenous peroxidases were blocked with 3% of H2O2. This step was followed by an avidin-biotin blocking step and a preincubation with TNB buffer (Tris HCl+NaCl+Casein). The corresponding primary antibody was incubated at 4° C. overnight ( 1/1000 for TGFb2). Secondary antibody incubation was performed at RT for 45 min before using the Tyramide signal amplification kit (Perkin Elmer). Counterstaining with DAPI was performed to visualize nuclei. To stain apoptotic and proliferating cells, we have used the apoptag kit (Merck Milipore) following manufacture's protocol followed by Ki67 staining. The primary antibody was incubated overnight (Ki67, 1/20) after the TdT-enzyme step. The secondary antibody was incubated for 45 min at RT after the fluorescent-labelled anti-Digoxigenin step of the apoptag kit. Counterstaining with DAPI was performed to visualize nuclei. Negative controls were performed by omitting the primary antibody. Images were taken using a Keyence fluorescence microscope (Osaka, Japan) maintaining a constant set exposure time throughout imaging for further analysis.
After 24 h of incubation, WEM medium was replaced and HFs were treated with the corresponding substances for 6 days following experimental conditions. HFs were treated either with vehicle (0.1% DMSO), sandal pentanol (500 μM), Phenirat (in a ratio 1:1 to the agonist), or a mixture sandal pentanol+Phenirat.
Staining intensity was evaluated in well-defined reference areas by quantitative (immuno-)histomorphometry, as previously described (Bertolini et al., 2014) using NIH IMAGE software (NIH, Bethesda, Md., USA).
With reference to the evidence of FIG. 4, to investigate whether sandal pentanol influences hair matrix keratinocytes proliferation and apoptosis, Ki67/TUNEL staining was performed. Proliferating (diagram of FIG. 4A) and apoptotic (diagram of FIG. 4B) hair matrix keratinocytes were counted in the hair matrix of treated and vehicle HFs. […]

[3] = target: T1, olfactory receptor OR2AT4 (Homo sapiens, UniProt A6NND4); details: according to Busse et al.; cited from earlier work
T1 sequence (A6NND4 1-320): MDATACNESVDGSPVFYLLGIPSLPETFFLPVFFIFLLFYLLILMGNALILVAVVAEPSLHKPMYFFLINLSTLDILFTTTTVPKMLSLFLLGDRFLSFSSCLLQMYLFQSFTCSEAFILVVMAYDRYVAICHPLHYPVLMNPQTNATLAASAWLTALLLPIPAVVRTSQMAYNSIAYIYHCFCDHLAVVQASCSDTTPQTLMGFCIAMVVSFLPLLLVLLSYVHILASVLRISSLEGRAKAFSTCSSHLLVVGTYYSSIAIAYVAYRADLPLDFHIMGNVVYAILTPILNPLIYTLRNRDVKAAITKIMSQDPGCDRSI

TGFβ2 = TGFβ2 immunofluorescence in ORS keratinocytes of cultured HFs; type: cell-based, human; details: 500 μM (Phenirat 1:1), 6 day-treatment, proximal ORS keratinocytes, compared to vehicle
Experimental: In addition, TGFβ2, a potent catagen inducer, was investigated with reference to the same above compounds.
OCT embedded samples were sectioned (6 μm thickness) with a cryostat. Sections were fixed in 4% paraformaldehyde, pre-incubated with 10% of goat serum (for OR2AT4) or 5% goat serum+0.3% Tritton X-100 (for cleaved-caspase 3) and incubated with the corresponding primary antibody at 4° C. overnight ( 1/100 for OR2AT4 and 1/400 for cleaved-caspase 3). Secondary antibody incubation was performed at RT for 45 min. Counterstaining with DAPI (1 μg/mL) was performed to visualize nuclei. For TGFb2, samples were fixed in acetone and the endogenous peroxidases were blocked with 3% of H2O2. This step was followed by an avidin-biotin blocking step and a preincubation with TNB buffer (Tris HCl+NaCl+Casein). […] Images were taken using a Keyence fluorescence microscope (Osaka, Japan) maintaining a constant set exposure time throughout imaging for further analysis. […]
Staining intensity was evaluated in well-defined reference areas by quantitative (immuno-)histomorphometry, as previously described (Bertolini et al., 2014) using NIH IMAGE software (NIH, Bethesda, Md., USA). […]
TGFβ2 expression was quantified using Image J. Mean±SEM, n=14-22 HFs from 2 patients, Kruskal-Wallis and Dunn's multiple comparisons test as post hoc test, *p<0.05, ***p<0.001, and Mann-Whitney test, ns. […]

[4] = test system: cultured human keratinocytes; details: Busse et al.; cited from earlier work
[5] = test system: human skin organ cultures; details: Busse et al.; cited from earlier work
keratinocytes = details: long-term stimulation, in vitro wound scratch assay, Busse et al.; cited from earlier work
[6] = test system: apoptotic signalling pathway; assay: Kinase assay of signalling pathways after OR2AT4 stimulation; type: cell-based, human; details: specific stimulation of OR2AT4 in microdissected HFs
Experimental: (§3) Then, in order to assess whether stimulation of OR2AT4 can influence human hair growth, microdissected HFs were treated with sandal pentanol at a concentration of 500 μM, as the agonist and a hair shaft elongation measurement was performed (see Philpott et al., 1990). In addition, a kinase assay was conducted in order to identify which signalling pathways are involved in the specific stimulation of OR2AT4 by sandal pentanol.

[7] = test system: microdissected human scalp HFs; assay: Hair shaft elongation in HF organ culture; type: cell-based; details: 500 μM, cultured microdissected HFs from two donors, compared to vehicle
Experimental: as §3
Human scalp samples were obtained after face-lifting procedure and used at the same day for microdissecting human anagen VI scalp HFs. […]
as §2
To check whether the activation of OR2AT4 can influence the hair cycle of human HF, microdissected human HFs were specifically stimulated with the potential agonist, sandal pentanol. The effect of the sandal pentanol treatment was evaluated by measuring hair shaft elongation compared to vehicle.
HF elongation was measured in cultured microdissected HFs. […]

In the case of CC(C)C(=O)OCCOc1ccccc1 [Phenirat, phenoxyethyl isobutyrate, reference compound], the “catagen induction / anagen prolongation (hair cycle score)” value [1] was “did not prolong anagen”, the “hair matrix keratinocyte apoptosis (TUNEL)” value [2] was “this effect is not obtained” and the “hair matrix keratinocyte proliferation (Ki67)” value [2] was “did not change”. For the same molecule, the “activity at olfactory receptor OR2AT4” value [3] was “specific antagonist” and the “TGFβ2 expression at the protein level” value (TGFβ2) was “no change”.

In the case of CC1=CC[C@@H](CC[C@@H](C)CO)C1(C)C (stereo in doubt) [brahmanol, 2-Methyl-4-(2,2,3-trimethyl-3-cyclopenten-1-yl)butanol], the “activity at olfactory receptor OR2AT4” value [3] is listed as “agonists” and the “Ca2+ signals” value [4] is listed as “induce Ca^2+ signals”.

In the case of CC1=CCC(CCC(C)C(C)O)C1(C)C (centres unmarked) [sandal pentanol, 3-methyl-5-(2,2,3-trimethylcyclopent-3-en-1-yl)pentan-2-ol], the epidermal wound healing [5] is listed as “enhances epidermal wound healing”, the “catagen induction / anagen prolongation (hair cycle score)” value [1] is listed as “delayed catagen induction” and the “hair matrix keratinocyte apoptosis (TUNEL)” value [2] is listed as “significantly decreased”. The “hair matrix keratinocyte proliferation (Ki67)” value [2] was “did not change”, the “cell proliferation, migration and regeneration of keratinocyte monolayers” value (keratinocytes) was “positively affects” and the “activity at olfactory receptor OR2AT4” value [3] was “agonists”. For the same molecule, the “Ca2+ signals” value [4] was “induce Ca^2+ signals”, the “TGFβ2 expression at the protein level” value (TGFβ2) was “significant decrease” and the “effect on apoptotic signalling pathway” value [6] was “Inhibits Apoptotic Signalling Pathway”. For the same molecule, the hair shaft elongation [7] was “stimulates hair shaft elongation”.
